Results as given in PMC11062899, “De novo development of small cyclic peptides that are orally bioavailable” (Nature Chemical Biology, 2023).

Target: human α-thrombin (Homo sapiens, UniProt P00734)
Experiment: Sub-library screen for active and permeable cyclic peptides (PAMPA plus thrombin inhibition)
Assay type: biochemical
Conditions: crude, slopes normalized to DMSO; for Residual thrombin activity: Top sample: PAMPA acceptor well after 14 h, 5 μM donor; for Residual thrombin activity: Equilibrated sample: donor sample diluted to theoretical equilibrium (1 μM in assay)
Experimental: Linear dithiol peptides were synthesized in fritted 5-ml polypropylene syringes on a MultiPep RSi parallel peptide synthesizer (Intavis) by standard Fmoc-based solid-phase peptide synthesis on cysteamine 2-chlorotrityl resin (Sigma-Aldrich, 8.56000, 1.63 mmol g^−1 loading, 25 μmol scale) as described above with small changes. Amino acids (65 μmol, 2.6 eq.) were activated with HATU (63 μmol, 2.5 eq.) and NMM (145 μmol, 5.8 eq.) in 280 μl of DMF and 5 μl of NMP and let to react with the resin (25 μmol, 1 eq.) for 45 min. Couplings were performed twice for each amino acid. Resin was washed once with 800 μl of DMF, and unreacted amines were capped with 5% acetic anhydride and 6% 2,6-lutidine in 400 μl of DMF for 5 min. The resin was washed six times with 600 μl of DMF, and Fmoc protecting groups were removed by incubating the resin twice with 450 μl of a 20% piperidine solution in DMF for 5 min. The resin was washed six times with 600 μl of DMF before proceeding to the next coupling cycle. After completing the last coupling cycle, the resin was washed six times with […] of DCM. Peptide cleavage and ether precipitation were carried out as described above. After quantification with Ellman’s reagent, 1 μmol of each peptide was transferred in seven replicates to new Nunc 96-well DeepWell polypropylene plates and lyophilized. Peptides were cyclized as described above to afford 20 mM cyclic peptide stock solutions in DMSO containing 160 mM HEPES sodium salt. The amine on cyclic peptides was acylated with 5-chlorothiophene-2-carboxylic acid as follows. A 160 mM solution in 5-chlorothiophene-2-carboxylic acid was prepared in DMSO containing 160 mM HEPES sodium salt, and the acid was activated by mixing in equal volumes with a 160 mM HSTU solution in DMSO. Then, 10 μl of the activated carboxylic acid solutions and the cyclic peptide stocks were placed in Echo Qualified 384-well Low Dead Volume microplates (Labcyte), and 400 nl of cyclic peptide and 400 nl of HSTU-activated 5-chlorothiophene-2-carboxylic acid were transferred combinatorially to 384-well microplates (Greiner, 781076) using the Echo 650 acoustic liquid handler (Labcyte). Plates were centrifuged at 2,000 g for 2 min, and the reaction was allowed to proceed at room temperature for 8 h before addition of 39.2 μl of DMSO with a CERTUS FLEX liquid dispenser (Gyger). A volume of 25 μl of the resulting DMSO solutions was diluted with PBS buffer at pH 7.4 containing 5% DMSO in Nunc 96-well DeepWell polypropylene plates to afford 5 μM solutions of the acylated peptides.
The PAMPA plates were covered with a lid to avoid evaporation and incubated for 14 h at room temperature. Additionally, a diluted donor sample was prepared at the concentration representing theoretical maximum permeability (3 μM). Thereby, 30 μl of the donor sample before incubation was diluted with 20 μl of PBS buffer at pH 7.4 containing 5% DMSO. Volumes of 16 μl of each acceptor well and the diluted donor samples were transferred to a 384-well microplate (Greiner, 781076), and thrombin activity was measured as follows. Human α-thrombin (16 μl, 6 nM, Molecular Innovations) in assay buffer was dispensed into each well using a CERTUS FLEX liquid dispenser (Gyger), and plates were incubated at room temperature for 10 min. Then, 16 μl of a 150 μM fluorogenic thrombin substrate solution (Z-Gly-Gly-Arg-AMC, Bachem) in assay buffer containing 1% DMSO was added to each well, and thrombin inhibition was determined by measuring the fluorescent gain over time. Fluorescence intensity was measured on a Tecan Infinite M200 Pro microplate reader for 30 min at 25 °C with a fluorescent readout every 3 min (excitation: 360 nm, emission: 465 nm). Protease inhibition was calculated by comparing the enzymatic activity to a control without cyclic peptide.

Residual thrombin activity: Top sample | Residual thrombin activity: Equilibrated sample | Compound
56.1 | 37.8 | O=C1C[C@H]2CCCN2C(=O)[C@H](Cc2ccccc2)NC(=O)[C@@H](NC(=O)c2ccc(Cl)s2)CCSCc2cccc(n2)CSCCN1 [C2-X5-L1]
89.4 | 25.8 | O=C1C[C@H]2CCCN2C(=O)[C@H](Cc2ccccc2)NC(=O)[C@@H](NC(=O)c2ccc(Cl)s2)CCSCCS(=O)(=O)CCSCCN1 [C2-X5-L2]
86.6 | 59.6 | O=C1C[C@H]2CCCN2C(=O)[C@H](Cc2ccccc2)NC(=O)[C@@H](NC(=O)c2ccc(Cl)s2)CCSCc2ccc(cc2)CSCCN1 [C2-X5-L3]
61.9 | 33.0 | O=C1C[C@H]2CCCN2C(=O)[C@H](Cc2ccccc2)NC(=O)[C@@H](NC(=O)c2ccc(Cl)s2)CCSC/C=C/CSCCN1 [C2-X5-L4]
90.5 | 54.8 | O=C1C[C@H]2CCCN2C(=O)[C@H](Cc2ccccc2)NC(=O)[C@@H](NC(=O)c2ccc(Cl)s2)CCSCc2cccc(c2)CSCCN1 [C2-X5-L5]
87.4 | 76.1 | O=C1C[C@H]2CCCN2C(=O)[C@H](Cc2ccccc2)NC(=O)[C@@H](NC(=O)c2ccc(Cl)s2)CCSCc2ccccc2CSCCN1 [C2-X5-L6]
95.7 | 44.2 | O=C1CSCCNC(=O)C[C@H]2CCCN2C(=O)[C@H](Cc2ccccc2)NC(=O)[C@@H](NC(=O)c2ccc(Cl)s2)CCSC1 [C2-X5-L7]
93.0 | 90.7 | O=C1C[C@H]2CCCN2C(=O)[C@@H](Cc2ccccc2)NC(=O)[C@@H](NC(=O)c2ccc(Cl)s2)CCSCc2cccc(n2)CSCCN1 [C2-X31-L1]
98.7 | 98.6 | O=C1C[C@H]2CCCN2C(=O)[C@@H](Cc2ccccc2)NC(=O)[C@@H](NC(=O)c2ccc(Cl)s2)CCSCCS(=O)(=O)CCSCCN1 [C2-X31-L2]
96.0 | 100.5 | O=C1C[C@H]2CCCN2C(=O)[C@@H](Cc2ccccc2)NC(=O)[C@@H](NC(=O)c2ccc(Cl)s2)CCSCc2ccc(cc2)CSCCN1 [C2-X31-L3]
98.4 | 104.3 | O=C1C[C@H]2CCCN2C(=O)[C@@H](Cc2ccccc2)NC(=O)[C@@H](NC(=O)c2ccc(Cl)s2)CCSC/C=C/CSCCN1 [C2-X31-L4]
105.0 | 96.6 | O=C1C[C@H]2CCCN2C(=O)[C@@H](Cc2ccccc2)NC(=O)[C@@H](NC(=O)c2ccc(Cl)s2)CCSCc2cccc(c2)CSCCN1 [C2-X31-L5]
92.4 | 88.8 | O=C1C[C@H]2CCCN2C(=O)[C@@H](Cc2ccccc2)NC(=O)[C@@H](NC(=O)c2ccc(Cl)s2)CCSCc2ccccc2CSCCN1 [C2-X31-L6]
102.6 | 101.7 | O=C1CSCCNC(=O)C[C@H]2CCCN2C(=O)[C@@H](Cc2ccccc2)NC(=O)[C@@H](NC(=O)c2ccc(Cl)s2)CCSC1 [C2-X31-L7]
92.7 | 101.7 | CN1C(=O)[C@@H](NC(=O)c2ccc(Cl)s2)CCSCc2cccc(n2)CSCCNC(=O)C[C@H]2CCCN2C(=O)[C@@H]1Cc1ccccc1 [C2-X32-L1]
93.7 | 100.8 | CN1C(=O)[C@@H](NC(=O)c2ccc(Cl)s2)CCSCCS(=O)(=O)CCSCCNC(=O)C[C@H]2CCCN2C(=O)[C@@H]1Cc1ccccc1 [C2-X32-L2]
97.8 | 96.9 | CN1C(=O)[C@@H](NC(=O)c2ccc(Cl)s2)CCSCc2ccc(cc2)CSCCNC(=O)C[C@H]2CCCN2C(=O)[C@@H]1Cc1ccccc1 [C2-X32-L3]
99.0 | 101.4 | CN1C(=O)[C@@H](NC(=O)c2ccc(Cl)s2)CCSC/C=C/CSCCNC(=O)C[C@H]2CCCN2C(=O)[C@@H]1Cc1ccccc1 [C2-X32-L4]
104.7 | 100.8 | CN1C(=O)[C@@H](NC(=O)c2ccc(Cl)s2)CCSCc2cccc(c2)CSCCNC(=O)C[C@H]2CCCN2C(=O)[C@@H]1Cc1ccccc1 [C2-X32-L5]
94.2 | 95.9 | CN1C(=O)[C@@H](NC(=O)c2ccc(Cl)s2)CCSCc2ccccc2CSCCNC(=O)C[C@H]2CCCN2C(=O)[C@@H]1Cc1ccccc1 [C2-X32-L6]
101.9 | 101.7 | CN1C(=O)[C@@H](NC(=O)c2ccc(Cl)s2)CCSCC(=O)CSCCNC(=O)C[C@H]2CCCN2C(=O)[C@@H]1Cc1ccccc1 [C2-X32-L7]
95.4 | 94.0 | COc1ccc(C[C@@H]2NC(=O)[C@@H](NC(=O)c3ccc(Cl)s3)CCSCc3cccc(n3)CSCCNC(=O)C[C@H]3CCCN3C2=O)cc1 [C2-X33-L1]
98.8 | 98.9 | COc1ccc(C[C@@H]2NC(=O)[C@@H](NC(=O)c3ccc(Cl)s3)CCSCCS(=O)(=O)CCSCCNC(=O)C[C@H]3CCCN3C2=O)cc1 [C2-X33-L2]
100.8 | 99.6 | COc1ccc(C[C@@H]2NC(=O)[C@@H](NC(=O)c3ccc(Cl)s3)CCSCc3ccc(cc3)CSCCNC(=O)C[C@H]3CCCN3C2=O)cc1 [C2-X33-L3]
100.6 | 93.7 | COc1ccc(C[C@@H]2NC(=O)[C@@H](NC(=O)c3ccc(Cl)s3)CCSC/C=C/CSCCNC(=O)C[C@H]3CCCN3C2=O)cc1 [C2-X33-L4]
104.9 | 49.9 | COc1ccc(C[C@@H]2NC(=O)[C@@H](NC(=O)c3ccc(Cl)s3)CCSCc3cccc(c3)CSCCNC(=O)C[C@H]3CCCN3C2=O)cc1 [C2-X33-L5]
92.7 | 95.5 | COc1ccc(C[C@@H]2NC(=O)[C@@H](NC(=O)c3ccc(Cl)s3)CCSCc3ccccc3CSCCNC(=O)C[C@H]3CCCN3C2=O)cc1 [C2-X33-L6]
102.7 | 99.9 | COc1ccc(C[C@@H]2NC(=O)[C@@H](NC(=O)c3ccc(Cl)s3)CCSCC(=O)CSCCNC(=O)C[C@H]3CCCN3C2=O)cc1 [C2-X33-L7]
87.1 | 93.9 | O=C1C[C@H]2CCCN2C(=O)[C@H](Cc2ccc(Cl)cc2)NC(=O)[C@@H](NC(=O)c2ccc(Cl)s2)CCSCc2cccc(n2)CSCCN1 [C2-X34-L1]
